Test results from the NIST ThermoML archive (doi:10.1016/j.jct.2013.10.031).

Settings: for vapor or sublimation pressure: Liquid, Closed cell (Static) method; for mass density: Gas, Burnett expansion method

FCC(F)(F)F [1,1,1,2-tetrafluoroethane]
Settings	vapor or sublimation pressure [kPa]
252.12 K	127.2
256.18 K	151.4
260.19 K	178.5
264.2 K	209.6
268.21 K	244.3
272.14 K	283
276.09 K	326.1
280.13 K	374.9
284.1 K	428.7
288.09 K	487
292.13 K	554.1
296.32 K	630.3
300.17 K	707.1
304.12 K	792.4
308.12 K	887
312.19 K	991.8
316.2 K	1103.5
320.09 K	1220.6

N#N [nitrogen]
mass density [kg/m3]
Settings	634.95 kPa	845.67 kPa	1127.1 kPa	1502.9 kPa	2004.5 kPa
322.97 K	–	8.818	11.749	–	20.889
322.98 K	6.619	–	–	15.668	–

CCC [propane]
Settings	vapor or sublimation pressure [kPa]
252.1 K	236
256.21 K	273.3
260.1 K	311.1
264.21 K	358.7
268.09 K	406
272.13 K	460.2
276.14 K	519.7
280.21 K	585.8
284.09 K	653.2
288.1 K	731.4
292.1 K	814.2
296.21 K	906.2
300.18 K	1001.8
304.19 K	1107.5
308.18 K	1219.8
312.17 K	1339.6
316.2 K	1468.9
320.19 K	1606.7
